Results: US4254110A, “Pentofuranosyl anthracyclines, intermediates in and method for their preparation and compositions and use thereof” (Farmitalia Carlo Erba S.p.A., priority 1979, dated 1981)
≈ marks a conversion by molar mass, not a printed value. Structures can show the parent of a compound that is named as a salt. Where two headings read alike, the source gives them in different places.

How the values were obtained:
[1] = test system: P-388 leukemia; assay: Antitumor activity against P-388 leukemia in mice; format: in vivo; settings: for Toxic Deaths: macroscopic autoptic findings; for antitumor activity compared with daunorubicin and doxorubicin: at the tolerated doses (100~200 mg/Kg)
Procedure: The antitumor activity of the same compounds was tested against P-388 leukemia in mice.
^(a) Mice were treated i.p. on day 1 after tumor cell inoculation.
^(b) Evaluated on the basis of macroscopic autoptic findings.
^(c) Injected as a water solution.
^(d) Injection as a 5% aqueous ethanol suspension.
^(e) Injected as a 1:9 Tween 80 : water suspension.

[2] = test system: HeLa cells; assay: Cytotoxic activity against HeLa cells in vitro (effect on HeLa cells viability); format: cell-based; settings: Homo sapiens, read-out: ID50 (effect on HeLa cells viability in vitro)
Procedure: The cytotoxic activity of several of the new compounds according to the invention were tested against HeLa cells in vitro (time of exposure to the compounds=24 hours) in comparison with daunorubicin and doxorubicin.

[3] = dose 50 mg/Kg i.p. on day 1, III-a as 5% aqueous ethanol suspension, others as 1:9 Tween 80:water suspension
[4] = dose 100 mg/Kg i.p. on day 1, III-a as 5% aqueous ethanol suspension, others as 1:9 Tween 80:water suspension
[5] = dose 200 mg/Kg i.p. on day 1, III-a as 5% aqueous ethanol suspension, others as 1:9 Tween 80:water suspension
[6] = dose 4.4 mg/Kg i.p. on day 1, water solution
[7] = dose 4.4 mg/Kg i.p. on day 1 after tumor cell inoculation, water solution
[8] = dose 6.6 mg/Kg i.p. on day 1, water solution
[9] = dose 6.6 mg/Kg i.p. on day 1 after tumor cell inoculation, water solution

Row | SMILES | T/C % [1, 3] | Toxic Deaths [1, 3] | T/C % [1, 4] | Toxic Deaths [1, 4] | T/C % [1, 5] | Toxic Deaths [1, 5] | IC50 ([2]; HeLa cells, 24 hours exposure) | antitumor activity compared with daunorubicin and doxorubicin [1] | Toxic Deaths ([1]; dose 2.9 mg/Kg i.p. on day 1, water solution) | T/C % ([1]; dose 2.9 mg/Kg i.p. on day 1 after tumor cell inoculation, water solution) | Toxic Deaths [1, 6] | T/C % [1, 7] | Toxic Deaths [1, 8] | T/C % [1, 9] | IC50 ([2]; HeLa, 24 h) | Toxic Deaths ([1]; dose 10.0 mg/Kg i.p. on day 1, water solution) | T/C % ([1]; dose 10.0 mg/Kg i.p. on day 1 after tumor cell inoculation, water solution)
1 | COc1cccc2c1C(=O)c1c(O)c3c(c(O)c1C2=O)C[C@@](O)(C(=O)CO)C[C@@H]3O[C@H]1CC(C=O)[C@H](C)O1 (stereo partly drawn) [Compound III (R3 = OH), 7-O-(2,3,5-trideoxy-3-C-formyl-α-pentofuranosyl)-adriamycinone] | 163% | 0/9 | 190% | 0/9 | 231% | 1/7 | 140 ng/mL (≈ 0.266 µM) |  |  |  |  |  |  |  |  |  | 
2 | COc1cccc2c1C(=O)c1c(O)c3c(c(O)c1C2=O)C[C@@](O)(C(C)=O)C[C@@H]3O[C@H]1CC(C=O)[C@H](C)O1 (stereo partly drawn) [Compound III-a, 7-O-(2,3,5-trideoxy-3-C-formyl-α-L-threopentofuranosyl)-daunomycinone] | 168% | 0/8 | 163% | 0/5 | 190% | 2/5 | 320 ng/mL (≈ 0.627 µM) | higher than or comparable to those of both daunorubicin and doxorubicin |  |  |  |  |  |  |  |  | 
3 | COc1cccc2c1C(=O)c1c(O)c3c(c(O)c1C2=O)C[C@@](O)(C(=O)CO)C[C@@H]3O[C@H]1CC(C=O)[C@H](C)O1 (stereo partly drawn) [III (R3 =OH)] |  |  |  |  |  |  |  | higher than or comparable to those of both daunorubicin and doxorubicin |  |  |  |  |  |  |  |  | 
4 | COc1cccc2c1C(=O)c1c(O)c3c(c(O)c1C2=O)C[C@@](O)(C(C)=O)C[C@@H]3O[C@H]1CC(CO)[C@H](C)O1 (stereo partly drawn) [Compound IV (R3 = H), 7-O-(2,3,5-trideoxy-3-C-hydroxymethyl-α-L-threopentofuranosyl)-daunomycinone] | 130% | 0/7 | 160% | 0/6 | 220% | 0/5 | 1.6 ng/mL (≈ 0.00312 µM) | higher than or comparable to those of both daunorubicin and doxorubicin |  |  |  |  |  |  |  |  | 
5 | COc1cccc2c1C(=O)c1c(O)c3c(c(O)c1C2=O)C[C@@](O)(C(C)=O)C[C@@H]3O[C@H]1C[C@H](N)[C@H](O)[C@H](C)O1 [Daunorubicin . HCl, daunorubicin, reference compound] |  |  |  |  |  |  |  |  | 0/37 | 169% | 0/38 | 167% | 19/38 | 157% | 7.4 ng/mL |  | 
6 | COc1cccc2c1C(=O)c1c(O)c3c(c(O)c1C2=O)C[C@@](O)(C(=O)CO)C[C@@H]3O[C@H]1C[C@H](N)[C@H](O)[C@H](C)O1 [Doxorubicin . HCl, doxorubicin, reference compound] |  |  |  |  |  |  |  |  |  |  | 0/17 | 195% | 0/17 | 206% | 10 ng/mL | 4/18 | 244%
7 | COc1cccc2c1C(=O)c1c(O)c3c(c(O)c1C2=O)C[C@@](O)(C(C)=O)C[C@@H]3O[C@H]1CC(C=O)[C@H](C)O1 (single isomer, unassigned) [Compound III-b] | 110% | 0/10 | 110% | 0/10 | 125% | 0/9 | 1.75 ng/mL (≈ 0.00343 µM) |  |  |  |  |  |  |  |  |  | 
